In patent US12570642B2, “GLP-IR modulating compounds” (Gilead Sciences, Inc., priority 2021, dated 2026) one finds EC50 data, which are given here for 25 molecules.

The experiment has as its target GLP-1R (Homo sapiens, UniProt P43220). The experiment can be described thus: GLP-1R Activation - cAMP Assay. It counts as cell-based. Conditions: each compound run on one of the two cAMP assays (Assay 1 or Assay 2, not specified). In a few lines:
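CHO cells stably expressing GLP-1R, plated at 1,000 cells/well overnight, then equilibrated 1 h in HBSS with 20 mM Hepes and 0.1% BSA. Agonist added as 10-point dose response for 30 min at 37 °C. cAMP measured by HTRF (Cisbio Gs Dynamic kit); EC50 from sigmoidal fit.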

The mark [1] stands for this setting: cAMP increase in CHO cells stably expressing GLP-1R.

GLP-1R, sequence (P43220 24-463): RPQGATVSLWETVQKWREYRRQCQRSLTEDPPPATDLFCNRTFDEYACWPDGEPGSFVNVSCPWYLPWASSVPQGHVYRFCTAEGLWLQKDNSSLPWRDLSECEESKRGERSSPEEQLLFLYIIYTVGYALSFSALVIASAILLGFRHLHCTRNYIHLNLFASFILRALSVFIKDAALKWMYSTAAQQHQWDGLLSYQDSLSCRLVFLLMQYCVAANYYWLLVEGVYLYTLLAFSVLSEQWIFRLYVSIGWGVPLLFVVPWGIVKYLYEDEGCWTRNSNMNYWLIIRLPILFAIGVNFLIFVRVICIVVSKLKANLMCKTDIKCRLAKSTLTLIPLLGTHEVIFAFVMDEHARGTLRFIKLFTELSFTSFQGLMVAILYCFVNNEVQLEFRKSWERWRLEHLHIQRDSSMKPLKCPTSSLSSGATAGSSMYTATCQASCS

With `CC1(C)COCC1n1c(Cc2c(F)cc(-c3cccc(OCc4ccc(C#N)cc4F)n3)c(F)c2F)nc2ccc(C(=O)O)cc21` (stereo not shown) [Example 293, 2-(4-(6-((4-cyano-2-fluorobenzyl)oxy)pyridin-2-yl)-2,3,6-trifluorobenzyl)-1-(4,4-dimethyltetrahydrofuran-3-yl)-1H-benzo[d]imidazole-6-carboxylic acid], the concentration giving a half-maximal response (EC50) under setting [1] was found to be 0.04 nM.

Molecule `CC1(C)COC[C@H]1n1c(Cc2c(F)cc(-c3ccc(F)c(OCc4ccc(C#N)cc4F)n3)cc2F)nc2c(F)cc(C(=O)O)cc21` [Example 307, (S)-2-(4-(6-((4-cyano-2-fluorobenzyl)oxy)-5-fluoropyridin-2-yl)-2,6-difluorobenzyl)-1-(4,4-dimethyltetrahydrofuran-3-yl)-4-fluoro-1H-benzo[d]imidazole-6-carboxylic acid] registered an EC50 under setting [1] of 0.508 nM.

Turning to `CC1(C)COC[C@H]1n1c(Cc2cc(F)c(-c3cccc(OCc4ccc(C#N)cc4F)n3)cc2F)nc2c(F)cc(C(=O)O)cc21` [Example 12, (S)-2-(4-(6-((4-cyano-2-fluorobenzyl)oxy)pyridin-2-yl)-2,5-difluorobenzyl)-1-(4,4-dimethyltetrahydrofuran-3-yl)-4-fluoro-1H-benzo[d]imidazole-6-carboxylic Acid], the response under setting [1] was half-maximal at 0.03 nM (EC50).

For `COc1cc(Cl)ncc1COc1nc(-c2ccc(Cc3nc4c(F)cc(C(=O)O)cc4n3[C@@H]3COCC3(C)C)c(F)c2)ccc1F` [Example 324, (S)-2-(4-(6-((6-chloro-4-methoxypyridin-3-yl)methoxy)-5-fluoropyridin-2-yl)-2-fluorobenzyl)-1-(4,4-dimethyltetrahydrofuran-3-yl)-4-fluoro-1H-benzo[d]imidazole-6-carboxylic acid], the EC50 under setting [1] stood at 0.049 nM.

`Cn1ccc(COc2cccc(-c3cc(F)c(Cc4nc5ccc(C(=O)O)cc5n4[C@@H]4COCC4(C)C)cc3F)n2)cc1=O` [Example 427, (S)-2-(2,5-difluoro-4-(6-((1-methyl-2-oxo-1,2-dihydropyridin-4-yl)methoxy)pyridin-2-yl)benzyl)-1-(4,4-dimethyltetrahydrofuran-3-yl)-1H-benzo[d]imidazole-6-carboxylic acid] had an EC50 under setting [1] of 0.501 nM. This EC50 lies about 10-fold higher than the previous one.

The molecule `COCCn1c(C(CO)c2cc(F)c(-c3cccc(OCc4ccc(C#N)cc4F)n3)cc2F)nc2ccc(C(=O)O)cc21` (stereo not shown) [Example 54] showed an EC50 under setting [1] of 31.6 nM.

Molecule `COCCn1c(Cc2c(F)cc(-c3ccc(F)c(OCc4ccc(Cl)cc4F)n3)c(F)c2F)nc2c(F)cc(C(=O)O)cc21` [Example 485, 2-(4-(6-((4-chloro-2-fluorobenzyl)oxy)-5-fluoropyridin-2-yl)-2,3,6-trifluorobenzyl)-4-fluoro-1-(2-methoxyethyl)-1H-benzo[d]imidazole-6-carboxylic acid] returned an EC50 under setting [1] of 0.203 nM. Compared with the last molecule, the EC50 is about 160-fold lower.

Turning to `CC1(C)COC[C@H]1n1c(Cc2cc(F)c(-c3ccc(Cl)c(OCc4ccc(C#N)cc4F)n3)cc2F)nc2ccc(C(=O)O)cc21` [Example 434, (S)-2-(4-(5-chloro-6-((4-cyano-2-fluorobenzyl)oxy)pyridin-2-yl)-2,5-difluorobenzyl)-1-(4,4-dimethyltetrahydrofuran-3-yl)-1H-benzo[d]imidazole-6-carboxylic acid], the EC50 under setting [1] turned out to be 0.058 nM.

For the molecule `CC1(C)COC[C@H]1n1c(Cc2cc(F)c(-c3ccnc(OCc4ccc(Cl)cc4)n3)cc2F)nc2ccc(C(=O)O)cc21` [Example 231, (S)-2-(4-(2-((4-chlorobenzyl)oxy)pyrimidin-4-yl)-2,5-difluorobenzyl)-1-(4,4-dimethyltetrahydrofuran-3-yl)-1H-benzo[d]imidazole-6-carboxylic acid], the EC50 under setting [1] worked out at 0.049 nM. This EC50 and that of the molecule before are within 1.5-fold of each other.

In turn, `CC1(C)COCC1n1c(Cc2cc(F)c(-c3cccc(OCc4cc(F)c(Cl)cc4F)n3)cc2F)nc2c(F)cc(C(=O)O)cc21` (stereo not shown) [Example 501, 2-(4-(6-((4-chloro-2,5-difluorobenzyl)oxy)pyridin-2-yl)-2,5-difluorobenzyl)-1-(4,4-dimethyltetrahydrofuran-3-yl)-4-fluoro-1H-benzo[d]imidazole-6-carboxylic acid] came in with an EC50 under setting [1] of 0.508 nM.

On to `N#Cc1ccc(COc2cccc(-c3cc(F)c(Cc4nc5ccc(C(=O)O)cc5n4C4CC45CC5)cc3F)n2)c(F)c1` (stereo not shown) [Example 62], for which a half-maximal effect under setting [1] (EC50) was put at 7.32 nM.

Regarding `Cc1cc(Cc2nc3c(F)cc(C(=O)O)cc3n2[C@@H]2COCC2(C)C)c(Cl)cc1-c1ccc(F)c(OCc2ccc(C#N)cc2)n1` [Example 136, (S)-2-(2-chloro-4-(6-((4-cyanobenzyl)oxy)-5-fluoropyridin-2-yl)-5-methylbenzyl)-1-(4,4-dimethyltetrahydrofuran-3-yl)-4-fluoro-1H-benzo[d]imidazole-6-carboxylic Acid], under setting [1], it took 0.312 nM to reach a half-maximal effect (EC50).

Under setting [1], `N#Cc1ccc(COc2cccc(-c3cc(F)c(Cc4nc5ccc(C(=O)O)cc5n4C4CCS(=O)(=O)C4)cc3F)n2)c(F)c1` (stereo not shown) [Example 81, 2-(4-(6-((4-cyano-2-fluorobenzyl)oxy)pyridin-2-yl)-2,5-difluorobenzyl)-1-(1,1-dioxidotetrahydrothiophen-3-yl)-1H-benzo[d]imidazole-6-carboxylic Acid] came in with an EC50 of 40.9 nM.

Under setting [1], `CC1(C)COC[C@H]1n1c(Cc2cc(F)c(-c3ccc(F)c(OCc4ccc(Cl)cc4)n3)cc2F)nc2c(F)cc(C(=O)O)cc21` [Example 228, (S)-2-(4-(6-((4-chlorobenzyl)oxy)-5-fluoropyridin-2-yl)-2,5-difluorobenzyl)-1-(4,4-dimethyltetrahydrofuran-3-yl)-4-fluoro-1H-benzo[d]imidazole-6-carboxylic acid] had an EC50 of 0.047 nM.

`CC1(C)COC[C@H]1n1c(Cc2cc(F)c(-c3cccc(OCc4c(F)cc(C#N)cc4F)n3)cc2F)nc2ccc(C(=O)O)cc21` [Example 493, (S)-2-(4-(6-((4-cyano-2,6-difluorobenzyl)oxy)pyridin-2-yl)-2,5-difluorobenzyl)-1-(4,4-dimethyltetrahydrofuran-3-yl)-1H-benzo[d]imidazole-6-carboxylic acid] came in with an EC50 under setting [1] of 0.278 nM.

`COCCn1c(Cc2cc(F)c(-c3cccc(OCc4ccc(Cl)cc4)n3)cc2F)nc2c(F)cc(C(=O)O)cc21` [Example 386, 2-(4-(6-((4-chlorobenzyl)oxy)pyridin-2-yl)-2,5-difluorobenzyl)-4-fluoro-1-(2-methoxyethyl)-1H-benzo[d]imidazole-6-carboxylic acid]: the EC50 under setting [1] came out at 0.093 nM.

With `CC1(C)COC[C@H]1n1c(Cc2cc(F)c(-c3cccc(OCc4ccc(C#N)c(F)c4F)n3)cc2F)nc2c(F)cc(C(=O)O)cc21` [Example 500, (S)-2-(4-(6-((4-cyano-2,3-difluorobenzyl)oxy)pyridin-2-yl)-2,5-difluorobenzyl)-1-(4,4-dimethyltetrahydrofuran-3-yl)-4-fluoro-1H-benzo[d]imidazole-6-carboxylic Acid], the midpoint of the response under setting [1], the EC50, lay at 0.203 nM.

On to `Cn1cc(-c2ccc(COc3cccc(-c4cc(F)c(Cc5nc6ccc(C(=O)O)cc6n5[C@@H]5COCC5(C)C)cc4F)n3)c(F)c2)nn1` [Example 442, (S)-2-(2,5-difluoro-4-(6-((2-fluoro-4-(1-methyl-1H-1,2,3-triazol-4-yl)benzyl)oxy)pyridin-2-yl)benzyl)-1-(4,4-dimethyltetrahydrofuran-3-yl)-1H-benzo[d]imidazole-6-carboxylic acid], for which the EC50 under setting [1] came to 0.042 nM.

With `O=C(O)c1ccc2nc(Cc3cc(F)c(-c4cccc(OCc5ccc(Cl)cc5F)n4)cc3F)n(C3COC4CC3C4)c2c1` (stereo in doubt) [Example 573, (S)-1-(2-oxabicyclo[3.1.1]heptan-4-yl)-2-(4-(6-((4-chloro-2-fluorobenzyl)oxy)pyridin-2-yl)-2,5-difluorobenzyl)-1H-benzo[d]imidazole-6-carboxylic acid], under setting [1], the EC50 came to 0.188 nM.

Turning to `Cn1ncc2cc(COc3cccc(-c4cc(F)c(Cc5nc6ccc(C(=O)O)cc6n5C[C@@H]5CCO5)cc4F)n3)ccc21` [Example 526, (S)-2-(2,5-difluoro-4-(6-((1-methyl-1H-indazol-5-yl)methoxy)pyridin-2-yl)benzyl)-1-(oxetan-2-ylmethyl)-1H-benzo[d]imidazole-6-carboxylic acid], under setting [1], the midpoint of the response, the EC50, lay at 0.509 nM. Against the preceding molecule, the EC50 is about 2.7-fold higher.

As for `COCCn1c(C(F)c2cc(F)c(-c3cccc(OCc4ccc(C#N)cc4F)n3)cc2F)nc2ccc(C(=O)O)cc21` (stereo not shown) [Example 51], it took 0.83 nM to reach a half-maximal effect under setting [1] (EC50).

Where the note is “[…]”, `COC(=O)N1C[C@@H](OC)[C@@H](n2c(Cc3cc(F)c(-c4cccc(OCc5ccc(C#N)cc5F)n4)cc3F)nc3ccc(C(=O)O)cc32)C1` [Example 87, 2-(4-(6-((4-cyano-2-fluorobenzyl)oxy)pyridin-2-yl)-2,5-difluorobenzyl)-1-((3S,4R)-4-methoxy-1-(methoxycarbonyl)pyrrolidin-3-yl)-1H-benzo[d]imidazole-6-carboxylic Acid] returned an EC50 of 22.5 nM.

Consider `CC1(C)COC[C@H]1n1c(Cc2cc(F)c(-c3cccc(OCc4c(F)cccc4F)n3)cc2F)nc2ccc(C(=O)O)cc21` [Example 476, (S)-2-(4-(6-((2,6-difluorobenzyl)oxy)pyridin-2-yl)-2,5-difluorobenzyl)-1-(4,4-dimethyltetrahydrofuran-3-yl)-1H-benzo[d]imidazole-6-carboxylic acid], for which the EC50 under setting [1] was 0.614 nM.

`CC1(C)COC[C@H]1n1c(Cc2c(F)cc(-c3cccc(OCc4ccc(C#N)cc4F)n3)cc2F)nc2ccc(C(=O)O)cc21` [Example 321, (S)-2-(4-(6-((4-cyano-2-fluorobenzyl)oxy)pyridin-2-yl)-2,6-difluorobenzyl)-1-(4,4-dimethyltetrahydrofuran-3-yl)-1H-benzo[d]imidazole-6-carboxylic acid] gave an EC50 under setting [1] of 0.083 nM.

`CC1(C)COC[C@H]1n1c(Cc2cc(F)c(-c3cccc(OCc4ccc(Cl)c(F)c4F)n3)cc2F)nc2ccc(C(=O)O)cc21` [Example 488, (S)-2-(4-(6-((4-chloro-2,3-difluorobenzyl)oxy)pyridin-2-yl)-2,5-difluorobenzyl)-1-(4,4-dimethyltetrahydrofuran-3-yl)-1H-benzo[d]imidazole-6-carboxylic acid] gave a 50% effective concentration (EC50) under setting [1] of 0.282 nM.
